Columns and labels:
Type in all cases: in vivo
[1] = tested on: Puccinia recondita; assay: Use Example 3: curative control of brown rust on wheat (PUCCRT K4); conditions: % diseased leaf area
Outline: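 Wheat seedlings inoculated with Puccinia recondita spores, held 24 h at 95–99% RH, 20–24° C in dark, then 3 days in greenhouse before spraying to run-off (curative). Compound in acetone/DMSO–Wettol–water. After 5–7 further days at 20–24° C, 65–70% RH, % diseased leaf area scored visually.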

[2] = tested on: Phakopsora pachyrhizi containing the amino acid substitution F129L in the mitochondrial cytochrome b protein; assay: Use Example 2: protective control of soybean rust on soybeans (PHAKPA P6); conditions: inoculated six days after spraying, % diseased leaf area
Outline: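 Compound in acetone and/or DMSO with Wettol (99:1), diluted with water, was sprayed to run-off on potted soybean seedlings. After six days at 23–27°C and 60–80% RH, plants were inoculated with a Qo-resistant F129L strain and held 24 h at about 95% RH. Percent diseased leaf area was scored visually after up to 14 days.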

[3] = tested on: Phakopsora pachyrhizi containing the amino acid substitution F129L in the mitochondrial cytochrome b protein; assay: Use Example 1: protective control of soybean rust on soybeans (PHAKPA P2); conditions: inoculated 2 days after spraying, % diseased leaf area
Outline: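 Soybean seedling leaves sprayed to run-off with compound in acetone/DMSO–Wettol–water at the stated concentration, kept 2 days at 23-27° C, then inoculated with Qo-inhibitor-resistant F129L P. pachyrhizi. After 24 h at ~95% RH, 20-24° C, and up to 14 days in greenhouse, % diseased leaf area scored visually.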

[4] = tested on: Puccinia recondita; assay: Use Example 4: preventative control of brown rust on wheat (PUCCRT P7); conditions: inoculated seven days after spraying, % diseased leaf area
Outline: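 First two leaves of potted wheat seedlings sprayed to run-off with compound in acetone/DMSO–emulsifier–water, then inoculated with Puccinia recondita spores seven days later. Plants held 24 h dark at 95–99% RH and 20–24 °C, then 9–11 days in greenhouse; diseased leaf area (%) scored visually.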

| SMILES | % PUCCRT Disease level K4 at 4 ppm [1] [%] | % PUCCRT Disease level K4 at 16 ppm [1] [%] | % PHAKPA (F129L) Disease level P6 at 4 ppm [2] [%] | % PHAKPA (F129L) Disease level P6 at 16 ppm [2] [%] | % PHAKPA (F129L) Disease level P2 at 4 ppm [3] [%] | % PHAKPA (F129L) Disease level P2 at 16 ppm [3] [%] | % PUCCRT Disease level P7 at 4 ppm [4] [%] | % PUCCRT Disease level P7 at 16 ppm [4] [%] |
| --- | --- | --- | --- | --- | --- | --- | --- | --- |
| CNC(=O)/C(=N/OC)c1cccc(Cl)c1CO/N=C(/C#Cc1ccc(F)cc1)COC [compound 6, (2E)-2-[3-chloro-2-[[(Z)-[3-(4-fluorophenyl)-1-(methoxymethyl)prop-2-ynylidene]amino]oxymethyl]phenyl]-2-methoxyimino-N-methyl-acetamide] | 38 | 2 | 28 | 5 | 8 | 0 | 8 | 0 |
| CO/C=C(/C(=O)OC)c1cccc(Cl)c1CO/N=C(\COC)c1ccc(F)c(F)c1 [compound 92] | 6 | 0 | 12 | 0 | 0 | 0 | 3 | 3 |
| CCOC/C(=N\OCc1c(Br)cccc1/C(=C\OC)C(=O)OC)c1ccc(F)cc1 [compound 66] | 62 | 8 | 13 | 1 | 11 | 1 | 27 | 4 |
| CCOC/C(=N\OCc1c(Cl)cccc1/C(=C\OC)C(=O)OC)c1cccc(Cl)c1 [compound 38] | 50 | 8 | 50 | 6 | 23 | 3 | 20 | 2 |
| COC/C(=N\OCc1c(Cl)cccc1/C(=N\OC)C(=O)OC)c1ccccc1F [compound 19] | 87 | 80 | 77 | 31 | 33 | 6 | 53 | 15 |
| CO/C=C(/C(=O)OC)c1cccc(Cl)c1CO/N=C(\COC)c1cccc(OC)c1 [compound 121] | 5 | 1 | 6 | 0 | 4 | 0 | 32 | 4 |
| CCOC/C(=N\OCc1c(Cl)cccc1/C(=C\OC)C(=O)OC)c1ccc(Cl)cc1 [compound 45] | 80 | 68 | 70 | 15 | 60 | 8 | 82 | 27 |
| CO/C=C(/C(=O)OC)c1cccc(Cl)c1CO/N=C(\COC)c1ccc(F)c(F)c1F [compound 101] | 35 | 3 | 6 | 0 | 2 | 0 | 54 | 3 |
| CO/C=C(/C(=O)OC)c1cccc(Cl)c1CO/N=C(\COC)c1ccccc1F [compound 13, Methyl-(E)-2-[3-chloro-2-[[(Z)-[1-(2-fluorophenyl)-2-methoxy-ethylidene]amino]oxymethyl]phenyl]-3-methoxy-prop-2-enoate] | 67 | 4 | 4 | 0 | 5 | 0 | 67 | 18 |
| CO/C=C(/C(=O)OC)c1cccc(Cl)c1CO/N=C(\COC)c1c(F)ccc(F)c1F [compound 113] | 77 | 13 | 10 | 1 | 1 | 0 | 70 | 10 |
| CO/C=C(/C(=O)OC)c1cccc(Cl)c1CO/N=C(\COC)c1ccccn1 [compound 129, Methyl (E)-2-[3-chloro-2-[[(Z)-[2-methoxy-1-(2-pyridyl)ethylidene]amino]oxymethyl]phenyl]-3-methoxy-prop-2-enoate] | 11 | 1 | 4 | 1 | 1 | 0 |  | 18 |
| CNC(=O)/C(=N/OC)c1cccc(Cl)c1CO/N=C(\COC)c1cc(F)c(F)c(F)c1 [compound 74] | 37 | 3 | 1 | 0 | 12 | 2 | 12 | 3 |
| COC/C(=N\OCc1c(Cl)cccc1/C(=N\OC)C(=O)OC)c1c(F)cccc1F [compound 83] | 37 | 18 | 0 | 0 | 2 | 0 | 32 | 12 |
| CO/C=C(/C(=O)OC)c1cccc(Cl)c1CO/N=C(\COC)c1cccc(Cl)c1F [compound 76] | 41 | 2 | 0 | 0 | 10 | 1 | 35 | 3 |
| CNC(=O)/C(=N/OC)c1cccc(Cl)c1CO/N=C(\COC)c1ccccc1Cl [compound 50] | 75 | 72 | 87 | 36 | 92 | 32 | 70 | 33 |
| CNC(=O)/C(=N/OC)c1cccc(Cl)c1CO/N=C(\COC)c1cc(Cl)ccc1F [compound 107] | 80 | 9 | 19 | 3 | 29 | 3 | 41 | 7 |
| CNC(=O)/C(=N/OC)c1cccc(Cl)c1CO/N=C(\COC)c1ccc(F)cc1 [compound 2, (2E)-2-[3-chloro-2-[[(Z)-[1-(4-fluorophenyl)-2-methoxyethylidene]amino]oxymethyl]phenyl]-2-methoxyimino-N-methyl-acetamide] | 63 | 4 | 0 | 1 | 16 | 0 | 15 | 5 |
| CNC(=O)/C(=N/OC)c1cccc(Cl)c1CO/N=C(\COC)c1cccc(F)c1 [compound 41] | 72 | 12 | 14 | 1 | 3 | 0 | 23 | 4 |
| CCOC/C(=N\OCc1c(Cl)cccc1/C(=N\OC)C(=O)NC)c1ccc(F)cc1 [compound 48] | 77 | 50 | 80 | 17 | 80 | 7 | 63 | 17 |

Reference: patent US20260165323A1, “USE OF STROBILURIN TYPE COMPOUNDS FOR COMBATING PHYTOPATHOGENIC FUNGI CONTAINING AN AMINO ACID SUBSTITUTION F129L IN THE MITOCHONDRIAL CYTOCHROME B PROTEIN CONFERRING RESISTANCE TO QO […]” (priority 2022, published 2026)
